Measurements from patent publication US7985766B2, “Combination of anticholineric and β mimetics for the treatment of respiratory diseases” (MEDA Pharma GmbH & Co. KG, priority 2004, dated 2011).
Like-named read-outs stand apart in the source and are kept apart here.

Test system: guinea pigs
Conditions: for inhibition of acetylcholine-induced bronchoconstriction (bronchodilatory effect): 1 μg/kg, single drug; for inhibition of acetylcholine-induced bronchoconstriction (bronchodilatory effect) / inhibition of the bronchospasm: i.th.; for inhibition of acetylcholine-induced bronchoconstriction, dose dependence: i.th. 1-10 μg/kg, acetylcholine 10 μg/kg i.v., anesthetized male guinea pigs
Method: After cannulating the trachea, animals were respired using a small animal respiratory pump with a constant tidal volume and a rate of 60 breaths/min. The lung resistance was measured by using a rodent lung function recording system (MUMED, London, UK). Compounds were given intravenously (i.v.) via a catheter placed in the right jugular vein. After surgery, the animals were allowed to stabilize. 10 min before acetylcholine (10 μg/kg, i.v.) administration, the guinea pigs were disconnected from the respirator and either vehicle (10 mg/lactose) or different amounts of drugs (blended with lactose) were administered intratracheally (i.th.) using a syringe. The trachea was then reconnected to the respirator and changes in pulmonary mechanics were recorded. Acetylcholine (10 μg/kg) was injected intravenously in every 10 minutes for 60 min.

In the case of C[N+]1(C)CC[C@@H](OC(=O)[C@](O)(c2ccccc2)C2CCCC2)C1.[Br-] [R,R-glycopyrrolate], the “inhibition of acetylcholine-induced bronchoconstriction (bronchodilatory effect)” value is reported as “not effective”, the “inhibition of the bronchospasm” value (3 μg/kg) is reported as “ca. 40%” and the “inhibition of the bronchospasm” value (10 μg/kg) is reported as “about 80%”. For the same compound, the “inhibition of acetylcholine-induced bronchoconstriction, dose dependence” value was “dose-dependently inhibited”.
For COc1ccc(CC(C)NCC(O)c2ccc(O)c(NC=O)c2)cc1 (stereo not drawn) [formoterol], the “inhibition of acetylcholine-induced bronchoconstriction (bronchodilatory effect)” value was “did not show any bronchodilatory effects” and the “inhibition of acetylcholine-induced bronchoconstriction, dose dependence” value was “dose-dependently inhibited”.
